According to patent US20070021441A1 (priority 2003, published 2007):
Read-outs that look alike come from different tables or passages of the source.

Test system: Pyricularia oryzae
Assay type: in vivo
Conditions: individual active compound, protective, inoculated next day, assessed after 6 days

SMILES | Efficacy in % of the untreated control (16 ppm in the spray liquor) | Efficacy in % of the untreated control (63 ppm in the spray liquor)
CC1CCN(c2c(-c3c(F)cc(F)cc3F)c(Cl)nc3ncnn23)CC1 [compound I, 5-chloro-7-(4-methylpiperidin-1-yl)-6-(2,4,6-trifluorophenyl)[1,2,4]triazolo[1,5-a]pyrimidine] | 21% | 48%
C[C@H](Nc1c(-c2c(F)cc(F)cc2F)c(Cl)nc2ncnn12)C(F)(F)F [B] | 48% | 61%
O=C1c2ccccc2C(=O)N1SC(Cl)(Cl)Cl [IIb, 2-trichloromethylsulfanylisoindole-1,3-dione] | 0% | 8%
CC1CCN(c2c(-c3c(F)cccc3Cl)c(Cl)nc3ncnn23)CC1 [A] | 35% | 61%
O=C1C2CC=CCC2C(=O)N1SC(Cl)(Cl)Cl (stereo not shown) [IIa, 2-trichloromethylsulfanyl-3a,4,7,7a-tetrahydroisoindole-1,3-dione] | 0% | 35%
